Experimental findings from US20140128411A1, “FUNGICIDAL COMPOSITION AND METHOD FOR CONTROLLING PLANT DISEASES” (Ishihara Sangyo Kaisha, Ltd., priority 2011, published 2014) are described below.

The subject of one assay is Erysiphe graminis. The assay can be described thus: Test on preventive effect against wheat powdery mildew. Also noted: key: control value = (1 − a/b)×100; a, b = sporulation area treated/untreated. It is filed as in vivo, Erysiphe graminis on wheat (cultivar: Norin-61). As to conditions: single compound alone. Here is the method: Wheat (cultivar: Norin-61) was cultivated in a plastic pot having a diameter of 7.5 cm, and when it reached 1.5-leaf stage, a chemical solution having each test compound adjusted to a prescribed concentration, was applied by a spray gun in an amount of 5 ml/seedling. After the chemical solution dried, conidia of Erysiphe graminis were dusted and inoculated and maintained in a constant temperature chamber at 20° C. From 6 to 8 days after the inoculation, the area of sporulation was investigated, and the control value was determined in accordance with the following formula, and the results are shown in Tables 1 to 7. The area of sporulation in the non-treated plot was determined in the same manner as for the treated plot except that water was applied by a spray gun instead of the chemical solution.
(§1) Control value=(1−a/b)×100
a: area of sporulation in the treated plot
b: area of sporulation in the non-treated plot
Based on the obtained control value, an expected value (control value) was calculated by the Colby's formula. The expected values by the Colby's formula are also shown in brackets ( ) in Tables 1 to 7.
When the experimental value is higher than the expected value, the fungicidal composition of the present invention has a synergistic effect against wheat powdery mildew.

The subject of the next assay is Botrytis cinerea. The experiment in a line: Test on preventive effect against kidney bean gray mold. It is filed as in vivo, Botrytis cinerea on kidney bean (cultivar: Taishokintoki). As to conditions: single compound alone. Here is the method: Kidney bean (cultivar: Taishokintoki) was cultivated in a plastic pot having a diameter of 12 cm, and when it reached 3 to 4-leaf stage, a chemical solution having each test compound adjusted to a prescribed concentration, was applied by a spray gun in an amount of 10 ml/seedling. After the chemical solution dried, a suspension of conidia of Botrytis cinerea was blotted on a paper disk having a diameter of 8 mm for implantation inoculation and maintained in a constant temperature chamber at 20° C. Upon expiration of 3 days from the inoculation, the lesion area was investigated, and the control value was determined in accordance with the following formula, and the results are shown in Table 8. The lesion area in the non-treated plot was determined in the same manner as for the treated plot except that water was applied by a spray gun instead of the chemical solution.
as §1
a: lesion area in the treated plot
b: lesion area in the non-treated plot
Based on the obtained control value, an expected value (control value) was calculated by the Colby's formula. The expected values by the Colby's formula are also shown in brackets ( ) in Table 8.
When the experimental value is higher than the expected value, the fungicidal composition of the present invention has a synergistic effect against kidney bean gray mold.

Each structure is given as a SMILES string. “And” between values parts separate entries of the source, which are not always exact repeats. Equal entries are not always repeated.

With `CCCCCCCCc1c(CC)nc2ncnn2c1N` [ametoctradin], the Control value worked out at 0 in the assay on Erysiphe graminis (200 ppm) and 15 in the assay with Erysiphe graminis (400 ppm).

For `Cn1cc(C(=O)Nc2ccc(F)cc2-c2ccc(Cl)c(Cl)c2)c(C(F)F)n1` [bixafen], the Control value is listed as 0 in the assay with Erysiphe graminis (250 ppm) and 50 with Erysiphe graminis (500 ppm).

Regarding `COc1cc(C)c(C(=O)c2c(OC)ncc(Cl)c2C)c(OC)c1OC` [component (a), 3-(2,3,4-trimethoxy-6-methylbenzoyl)-5-chloro-2-methoxy-4-methylpyridine], the Control value in the assay with Erysiphe graminis (0.25 ppm) was 30; in the assay on Erysiphe graminis (0.5 ppm, spray, area of sporulation 6 to 8 days after inoculation) it was 50 and 40; in the assay on Botrytis cinerea (200 ppm), 0; in the assay with Botrytis cinerea (400 ppm, spray, lesion area 3 days after inoculation), 0.

Regarding `C=CCSC(=O)n1c(N)c(-c2ccccc2C)c(=O)n1C(C)C` [fenpyrazamine], the Control value with Erysiphe graminis (63 ppm) and with Erysiphe graminis (250 ppm) was 0 each time.

On to `O=C(NCCc1ncc(C(F)(F)F)cc1Cl)c1ccccc1C(F)(F)F` [fluopyram], for which the Control value in the assay on Erysiphe graminis (16 ppm) amounted to 40; in the assay on Erysiphe graminis (31 ppm) it was 70.

Regarding `Cn1cc(C(=O)Nc2ccccc2-c2cc(F)c(F)c(F)c2)c(C(F)F)n1` [fluxapyroxad], the Control value was found to be 30 in the assay with Erysiphe graminis (6.3 ppm) and 50 in the assay with Erysiphe graminis (50 ppm).

Take `CC(C)C1C2CCC1c1c(NC(=O)c3cn(C)nc3C(F)F)cccc12` (centres unmarked) [isopyrazam]: the figures for the Control value with Erysiphe graminis (16 ppm) and in the assay with Erysiphe graminis (31 ppm) were 50 and 90, respectively.

Turning to `Cc1nn(C)c(F)c1C(=O)Nc1ccccc1C(C)CC(C)C` (centres unmarked) [penflufen], the values for the Control value with Botrytis cinerea (50 ppm) and in the assay with Botrytis cinerea (100 ppm) were 40 and 50, respectively.

In the case of `Cn1cc(C(=O)Nc2ccccc2C2CC2C2CC2)c(C(F)F)n1` (centres unmarked) [sedaxane], the Control value is listed as 0 in the assay with Erysiphe graminis (6.3 ppm) and 30 in the assay on Erysiphe graminis (12.5 ppm).
